In patent publication US20240226072A1 (Stichting Het Nederlands Kanker Instituut, priority 2022, published 2024):

Experiments:
[1] = Plasma pharmacokinetics and tissue distribution 2 h after oral cabazitaxel 10 mg/kg with vehicle or 25 mg/kg ritonavir in wild-type, Oatp1a/1b−/−, Oatp1a/1b/2b1−/−, OATP1B1- and OATP1B3-transgenic mice; type: in vivo; settings: for Cmax / Tmax / AUC(0-t): male, FVB, mouse, plasma, po, 10 mg/kg; for AUC(0-t): read-out: AUC0-2 h; for enhancement of AUC0-2h by ritonavir: ritonavir 25 mg/kg compared to vehicle group; for CLiver / Cbrain / Pbrain, brain accumulation per h / SIC (% of dose), small intestinal content: 2 h
Experimental: All animals were fasted 2 to 3 hours prior to the start of the experiment to minimize variation in absorption after oral administration. […] Subsequently, cardiac puncture was performed with a heparinized needle and syringe collecting a final blood sample. […] All samples were stored at −30° C. until analysis.
Differences were considered statistically significant when P<0.05. All data are presented as geometric mean±SD.

[2] = input of human simulation, cited from earlier work
[3] = in vivo; settings: male, mouse; for Kp at 24 h: Brain-to-plasma ratio
Experimental: (§1) The Jevtana (10 mg/mL) solution contains 0.26 mg/mL polysorbate 80 and 15% (w/v) ethanol, and is adjusted to pH 2-6 with citric acid. […] The stock solution was further diluted 5-fold with water to reach a 2.5 mg/mL dosing solution for oral administration. The vehicle solution only consists of polysorbate 80, ethanol and water (1:1:8, v/v/v). […] All dosing solutions were prepared freshly on the day of the experiment.
(§2) At the termination time point of 24 hours, mice were anesthetized using an isoflurane evaporator with 3% isoflurane with 0.8 L/min air and 0.3 L/min oxygen. A final blood sample was taken using cardiac puncture, using Eppendorf tubes previously prepared with heparin as an anticoagulant. Subsequently, the anesthetized mice were sacrificed by cervical dislocation and the tissues of interest were collected. Brain, liver, spleen, kidney, small intestine, and testis were collected. The small intestinal content (SIC) was separately collected by removing this from the small intestinal tissue, which was subsequently rinsed with saline to remove possibly fecal residue. The blood samples were centrifuged at 9,000×g for 6 minutes at 4° C., and the plasma fraction was isolated and stored at −30° C. until analysis. Brain, liver, spleen, kidney, small intestinal tissue, SIC, and testis were homogenized in a FastPrep-24™ 5G homogenizer (M. P. Biomedicals, Santa Ana, CA, USA) for 1 min with 1, 3, 1, 2, 3, 2, and 1 mL of 2% (w/v) BSA in Milli-Q water, respectively. Until analysis of the samples, they were all stored at −30° C.
(§3) Pharmacokinetic parameters were estimated by non-compartmental analysis using the software package of PK solutions 2.0.2 (SUMMIT, Research Service). The area under the curve (AUC) of the plasma-concentration time curve for all the compounds was calculated using the linear trapezoidal rule without extrapolating to infinity. The peak plasma concentration (Cmax) and the time to reach peak plasma concentration (Tmax) were obtained directly from the individual raw data. For the statistical analysis and the graphs GraphPad Prism 9 (GraphPad Software Inc., La Jolla, CA, USA) was used. The statistics for the comparison of multiple groups were calculated with the one-way analysis of variance (ANOVA), whereas Sidak's post hoc correction was performed. Log-transformation before statistical analysis was applied, when variances within the groups were not homogeneously distributed. Differences were considered statistically significant when P<0.05. All data are presented as geometric mean±SD.
The last parameter is in many cases the most useful, as it takes the overall exposure into account.

[4] = in vivo; settings: mouse; for AUC(0-t) / AUC0-24 h: po; for AUC(0-t): AUC0-24 h
Experimental: as §1, §2, §3

[5] = OATP1B3-transgenic mice, ritonavir 25 mg/kg oral, cabazitaxel 10 mg/kg oral
[6] = OATP1B3-transgenic mice, vehicle pretreatment, oral 10 mg/kg cabazitaxel
[7] = OATP1B3-transgenic mice, vehicle, cabazitaxel 10 mg/kg oral
[8] = Oatp1a/1b/2b1−/− mice, ritonavir 25 mg/kg oral, cabazitaxel 10 mg/kg oral
[9] = Oatp1a/1b/2b1−/− mice, vehicle pretreatment, oral 10 mg/kg cabazitaxel
[10] = Oatp1a/1b/2b1−/− mice, vehicle, cabazitaxel 10 mg/kg oral
[11] = Oatp1a/1b−/− mice, ritonavir 25 mg/kg oral, cabazitaxel 10 mg/kg oral
[12] = Oatp1a/1b−/− mice, vehicle pretreatment, oral 10 mg/kg cabazitaxel
[13] = Oatp1a/1b−/− mice, vehicle, cabazitaxel 10 mg/kg oral
[14] = wild-type mice, ritonavir 25 mg/kg oral, cabazitaxel 10 mg/kg oral
[15] = wild-type mice, vehicle pretreatment, oral 10 mg/kg cabazitaxel
[16] = wild-type mice, vehicle, cabazitaxel 10 mg/kg oral
[17] = Cyp3aXAV vs Cyp3a−/− (FVB background)
[18] = Cyp3aXAV vs Cyp3a−/− (FVB background), 24 h

Cmax [1, 5]: 3860 nM
Tmax [1, 5]: 60 min
Cmax [1, 6]: 2690 ± 761 nM
Tmax [1, 6]: 27.5 min
AUC(0-t) ([1]; OATP1B3-transgenic mice, vehicle pretreatment, oral 10 mg/kg cabazitaxel, 0-2 h): 3.51 ± 1.19 µM·h
Cmax [1, 7]: 2690 nM
Tmax [1, 7]: 27.5 min
Cmax [1, 8]: 4270 nM
Tmax [1, 8]: 70 min
Cmax [1, 9]: 2740 ± 1100 nM
Tmax [1, 9]: 26.7 min
AUC(0-t) ([1]; Oatp1a/1b/2b1−/− mice, vehicle pretreatment, oral 10 mg/kg cabazitaxel, 0-2 h): 2.88 ± 0.616 µM·h
Cmax [1, 10]: 2740 nM
Tmax [1, 10]: 26.7 min
Cmax [1, 11]: 4700 nM
Tmax [1, 11]: 80 min
Cmax [1, 12]: 2120 ± 398 nM
Tmax [1, 12]: 24.2 min
AUC(0-t) ([1]; Oatp1a/1b−/− mice, vehicle pretreatment, oral 10 mg/kg cabazitaxel, 0-2 h): 2.62 ± 0.417 µM·h
Cmax [1, 13]: 2120 nM
Tmax [1, 13]: 24.2 min
Cmax [1, 14]: 4530 nM
Tmax [1, 14]: 120 min
Cmax [1, 15]: 2820 ± 694 nM
Tmax [1, 15]: 25.8 min
AUC(0-t) ([1]; wild-type mice, vehicle pretreatment, oral 10 mg/kg cabazitaxel, 0-2 h): 3.28 ± 1.32 µM·h
Cmax [1, 16]: 2820 nM
Tmax [1, 16]: 25.8 min
AUC(0-t) ([1]; wild-type, wild-type mice, ritonavir 25 mg/kg oral, cabazitaxel 10 mg/kg oral): 7.62 µM·h
AUC(0-t) ([1]; wild-type, wild-type mice, vehicle, cabazitaxel 10 mg/kg oral): 3.28 µM·h
enhancement of AUC0-2h by ritonavir ([1]; transgenic OATP1B1 mice): 2.1 fold
enhancement of AUC0-2h by ritonavir ([1]; transgenic OATP1B3 mice): 1.9 fold
CLiver [1, 14]: 21554 pmol/g
Cbrain [1, 14]: 235 pmol/g
Pbrain, brain accumulation per h [1, 14]: 0.026 h⁻¹
SIC (% of dose), small intestinal content [1, 14]: 1.34 % of dose
CLiver [1, 16]: 2703 pmol/g
Cbrain [1, 16]: 50.0 pmol/g
Pbrain, brain accumulation per h [1, 16]: 0.013 h⁻¹
SIC (% of dose), small intestinal content [1, 16]: 1.14 % of dose
Kp at 24 h ([3]; Cyp3aXAV (FVB background), po, 10 mg/kg): 1.52
reduced AUC0-24h [3, 17]: 88.8 fold
reduced Cmax [3, 17]: 12.1 fold
decrease of liver concentration [3, 18]: 341.2 fold
reduction of brain exposure [3, 18]: 167.6 fold
Kp at 24 h ([3]; Cyp3a−/− (FVB background), po, 10 mg/kg): 0.231
Tmax ([3]; Cyp3a−/− (FVB background), po, 10 mg/kg, Tmax): 125 min
Kp at 24 h ([3]; wild-type FVB, po, 10 mg/kg): 1.17
increase in AUC0-24h ([4]; male, Cyp3aXAV (FVB background), 10 mg/kg): 10.1 fold
AUC(0-t) ([4]; male, Cyp3aXAV (human CYP3A in Cyp3a−/−, FVB background), 10 mg/kg): 1.24 ± 0.177 µM·h
AUC0-24 h ([4]; male, FVB, Cyp3aXAV, 10 mg/kg): 12.515 µM·h
AUC(0-t) ([4]; male, FVB, Cyp3aXAV, 10 mg/kg): 12.5 ± 5.41 µM·h
AUC0-24 h ([4]; male, FVB, wild-type, 10 mg/kg): 72.771 µM·h
AUC(0-t) ([4]; male, FVB, wild-type, 10 mg/kg): 72.8 ± 2.62 µM·h
alteration in AUC0-24h ([4]; 1 mg/kg): no alteration
Compound: CO[C@H]1C(=O)[C@]2(C)[C@@H](OC)C[C@H]3OC[C@@]3(OC(C)=O)[C@H]2[C@H](OC(=O)c2ccccc2)[C@]2(O)C[C@H](OC(=O)[C@H](O)[C@@H](NC(=O)OC(C)(C)C)c3ccccc3)C(C)=C1C2(C)C [cabazitaxel]
CLint, Intrinsic clearance ([2]; calculated from CL 48.5 and QH 80, sources (17, 18)): 123.17 L/h
IIV CL [2]: 38.8 CV%
Lag-time on Ka ([2]; observed for indinavir PK when co-administered with ritonavir, source (27)): 0.483 h
Ka, First order absorption rate constant ([2]; reported for docetaxel, source (26)): 0.7 h⁻¹
IIV K12 ([2]; source (17)): 84.0 CV%
IIV K13 ([2]; source (17)): 64.2 CV%
IIV K31 ([2]; source (17)): 28.2 CV%
IIV VI ([2]; source (17)): 93.4 CV%
IOV CL ([2]; source (17)): 19.4 CV%
IOV V1 ([2]; source (17)): 45.3 CV%
K12 ([2]; source (17)): 2.48 h⁻¹
K13 ([2]; source (17)): 4.84 h⁻¹
K21 ([2]; source (17)): 0.604 h⁻¹
K31 ([2]; source (17)): 0.0266 h⁻¹
V1 ([2]; source (17)): 26 L
